Laboratory results taken from patent publication US12522618B2, “Copper complexes for treatment of neurodegenerative disorders” (ALS Therapy Development Institute, priority 2020, dated 2026).

Tests used:
[1] = system: SOD1^G93A mice; assay: Compound muscle action potential (CMAP) in SOD1^G93A mice; assay type: in vivo, mouse
[2] = system: SOD1^G93A mice; assay: Disease onset (neuroscore NS2) and survival (NS4) in SOD1^G93A mice; assay type: in vivo, mouse; settings: for Effect on disease onset / Effect on survival: male SOD1^G93A mice, 10 mg/kg or 30 mg/kg daily oral gavage, vs vehicle
From the text: The SOD1^G93A transgenic mouse model of ALS has been the most widely used animal model since the 1990s. The mouse was genetically engineered to overexpress a mutant form of the human Cu/Zn superoxide dismutase 1 (SOD1) gene harboring an ALS-associated glycine to alanine mutation at amino acid position 93 (G93A). These mice replicate many of the features of ALS, such as motor neuron loss, muscle wasting, progressive paralysis and decreased survival. Additionally, the SOD1^G93A mouse model has shown to be ideal for drug screening because of early onset of the disease and moderate progression.
The mice were treated with vehicle, 10 mg/kg or 30 mg/kg CuATSM or one of the derivatives: Compound 25 (2% DMSO, 10% KolliphorHS15), Compound 9 (0.5% methylcellulose), Compound 24 (0.5% methylcellulose, 0.4% TWEEN-80), and Compound 37 (0.5% methylcellulose, 0.4% TWEEN-80). Measurements were taken to assess compound muscle action potential (CMAP), neuroscore, and disease onset and survival.
Neuroscore is a neurological scoring system based on visual observations of the hindlimb designed to assess the neuromuscular function of SOD1^G93A mice. The hindlimb is observed due to this being the earliest reported neurological sign of disease in SOD1^G93A mice. This method provides an unbiased assessment of onset of paresis (slight or partial paralysis) and the progression and severity of the paralysis. This method has also proven to be sensitive enough to identify drug-induced changes in disease progression. Neuroscore is assigned on a 0-4 scale corresponding to the following observations: NS0=the hindlimbs present with a normal splay; NS1=hindlimbs present with an abnormal splay; NS2=the hindlimbs show signs of paresis or are partially paralyzed; NS3=rigid paralysis in the hindlimbs; NS4=the mouse is unable to right itself up. These measurements were used in the current study to assess disease onset.
The onset of disease in the SOD1^G93A mice typically happens around age day 90-100, with mice eventually succumbing to the disease around age day 120-130. For comparison, a wild-type mouse of the same background may live up to 2 years. The onset of the disease in the current study was defined as the time to observe a neuroscore of NS2 in the mouse, while a neuroscore of a NS4 was considered to be the humane end-point. Reported p-values to illustrate statistical significant represent a log-rank test.

[3] = system: transgenic mouse models of ALS; settings: transgenic mice expressing human SOD1 with familial ALS mutations; cited from earlier work
[4] = male SOD1^G93A mice, 10 mg/kg or 30 mg/kg daily, four weeks, vs vehicle

## CN/C1=N/N=C(c2ccco2)/C(C)=N/N=C(/NC)[S][Cu][S]1 [Compound 25]
[1]; SOD1^G93A mice, 10 mg/kg or 30 mg/kg daily oral gavage, 5 weeks, vs vehicle
  CMAP as a percentage of baseline: significantly less change than the mice receiving vehicle
[1]; SOD1^G93A mice, 10 mg/kg or 30 mg/kg daily oral gavage, five weeks, vs control
  CMAP change from baseline: significant change in CMAP measurements from baseline compared to control mice
[2]; litter-matched, gender-balanced SOD1^G93A mice, chronic daily 30 mg/kg, vs control
  Survival efficacy study (onset of neurological disease, survival, body weight, neurological score): displayed benefits

## CCN/C1=N/N=C(c2ccc(CN3CCN(C)CC3)o2)/C(C)=N/N=C(/NCC)[S][Cu][S]1 [Compound 37]
[1]; male SOD1^G93A mice, 10 mg/kg or 30 mg/kg daily oral gavage, four weeks
  CMAP decline: did not attenuate the CMAP decline
[2]
  Effect on disease onset: neither dose significantly affected
  Effect on survival: neither dose significantly affected

## CN=C([S-])N/N=C(C)/C(C)=N/NC([S-])=NC.[Cu+2] [CuATSM, reference compound]
[3]
  Protection in transgenic mouse models of ALS: protective
[1]; [4]
  CMAP change from baseline: no differences
  percent of baseline CMAP: no differences

## CN/C1=N/N=C(C)/C(Cc2cccnc2)=N/N=C(/NC)[S][Cu][S]1 [Compound 9]
[2]
  Effect on disease onset: did not significantly affect
  Effect on survival: did not significantly affect

## CCN/C1=N/N=C(c2ccc(CN3CCOCC3)o2)/C(C)=N/N=C(/NCC)[S][Cu][S]1 [Compound 24]
[1]; male SOD1^G93A mice, 10 mg/kg or 30 mg/kg daily oral gavage, five weeks, vs control
  CMAP values (change from baseline, % of baseline): did not significantly improve CMAP values
